Assay results from ChEMBL document CHEMBL5050829, “Inhibitors of cytochrome P450 family 7 subfamily B member 1 (CYP7B1) for use in treating diseases” (2021).
Active and inactive are the calls of the source. The rule behind the calls is not given here.

What was measured:
Mus musculus [1] = species: Mus musculus; assay: Inhibition of Cyp7b1 in cigarette smoke extract (CSE)-stimulated mouse airways at 0.1 to 1 uM assessed as impairment of activated B-cell migration towards supernatant culture relative to control; type: tissue-based; conditions: Respiratory airway, dose 0.1-1 µM
Mus musculus [2] = species: Mus musculus; assay: Inhibition of Cyp7b1 in cigarette smoke extract (CSE)-stimulated mouse airways at 1 uM assessed as impairment of activated B-cell migration towards supernatant culture relative to control; type: tissue-based; conditions: Respiratory airway
Mus musculus [3] = assay: Protection against cigarette smoke-induced COPD in C57BL/6 mouse exposed with cigarette smoke for 6 months assessed as reduction in iBALT formation in lungs at 80 mg/kg, ip administered 3 times per week from 2 to 4 months; type: functional, organism-based; conditions: Lung
Mus musculus [4] = assay: Protection against cigarette smoke-induced COPD in C57BL/6 mouse exposed with cigarette smoke for 4 months assessed as reduction in emphysema in lungs at 80 mg/kg, ip administered 3 times per week from 2 to 4 months; type: functional, organism-based; conditions: Lung
Mus musculus [5] = species: Mus musculus; assay: Inhibition of Cyp7b1 in cigarette smoke extract (CSE)-stimulated mouse airways at 1 uM assessed as reduction in cyp7b1 mRNA expression relative to control; type: tissue-based; conditions: Respiratory airway
Mus musculus [6] = assay: Protection against cigarette smoke-induced COPD in C57BL/6 mouse exposed with cigarette smoke for 6 months assessed as reduction in lung volume at 80 mg/kg, ip administered 3 times per week from 2 to 4 months; type: functional, organism-based
Mus musculus [7] = assay: Protection against cigarette smoke-induced COPD in C57BL/6 mouse exposed with cigarette smoke for 4 months assessed as reduction in macrophage count in BALF at 80 mg/kg, ip administered 3 times per week from 2 to 4 months; type: functional, organism-based
B cell [8] = assay: Inhibition of Cyp7b1 in cigarette smoke extract (CSE) and LPS-stimulated mouse B cells at 0.3 to 1 uM assessed as reduction in TNF-alpha mRNA expression and measured by RT-PCR analysis relative to control; type: cell-based; conditions: dose 0.3-1 µM
Mus musculus [9] = assay: Protection against cigarette smoke-induced COPD in C57BL/6 mouse exposed with cigarette smoke for 4 months assessed as reduction in lung volume at 80 mg/kg, ip administered 3 times per week from 2 to 4 months; type: functional, organism-based
B cell [10] = assay: Inhibition of Cyp7b1 in cigarette smoke extract (CSE) and LPS-stimulated mouse B cells at 0.3 to 1 uM assessed as reduction in cyp7b1 mRNA expression and measured by RT-PCR analysis relative to control; type: cell-based; conditions: dose 0.3-1 µM
Mus musculus [11] = assay: Protection against cigarette smoke-induced COPD in C57BL/6 mouse exposed with cigarette smoke for 6 months assessed as reduction in macrophage count in BALF at 80 mg/kg, ip administered 3 times per week from 2 to 4 months; type: functional, organism-based
Mus musculus [12] = assay: Protection against cigarette smoke-induced COPD in C57BL/6 mouse exposed with cigarette smoke for 4 months assessed as reduction in iBALT formation in lungs at 80 mg/kg, ip administered 3 times per week from 2 to 4 months; type: functional, organism-based; conditions: Lung
Mus musculus [13] = assay: Protection against cigarette smoke-induced COPD in C57BL/6 mouse exposed with cigarette smoke for 4 months assessed as reduction in lymphocyte count in BALF at 80 mg/kg, ip administered 3 times per week from 2 to 4 months; type: functional, organism-based
Mus musculus [14] = assay: Protection against cigarette smoke-induced COPD in C57BL/6 mouse exposed with cigarette smoke for 6 months assessed as reduction in emphysema in lungs at 80 mg/kg, ip administered 3 times per week from 2 to 4 months; type: functional, organism-based; conditions: Lung
B cell [15] = assay: Inhibition of Cyp7b1 in cigarette smoke extract (CSE) and LPS-stimulated mouse B cells at 0.3 to 1 uM assessed as reduction in Ch25h mRNA expression and measured by RT-PCR analysis relative to control; type: cell-based; conditions: dose 0.3-1 µM
Mus musculus [16] = species: Mus musculus; assay: Inhibition of Cyp7b1 in cigarette smoke extract (CSE)-stimulated mouse airways at 1 uM assessed as reduction in Ch25h mRNA expression relative to control; type: tissue-based; conditions: Respiratory airway

CC(C)c1nc(CN(C)C(=O)N[C@H](C(=O)N[C@@H](Cc2ccccc2)C[C@H](O)[C@H](Cc2ccccc2)NC(=O)OCc2cncs2)C(C)C)cs1
inhibition (Mus musculus [1]): Active

CC(C)(C(=O)c1cccnc1)c1cccnc1
inhibition (Mus musculus [2]): Active

Clc1ccccc1C(c1ccccc1)(c1ccccc1)n1ccnc1
Activity (Mus musculus [3]): Active | Activity (Mus musculus [4]): Active | inhibition (Mus musculus [5]): Active | Activity (Mus musculus [6]): Active | Activity (Mus musculus [7]): Active | inhibition (B cell [8]): Active | Activity (Mus musculus [9]): Active | inhibition (B cell [10]): Active | Activity (Mus musculus [11]): Active | Activity (Mus musculus [12]): Active | Activity (Mus musculus [13]): Active | Activity (Mus musculus [14]): Active | inhibition (B cell [15]): Active | inhibition (Mus musculus [2]): Active | inhibition (Mus musculus [16]): inactive

Clc1ccc(COC(Cn2ccnc2)c2ccc(Cl)cc2Cl)c(Cl)c1 (stereo not drawn)
inhibition (Mus musculus [2]): Active
